Measurements taken from ChEMBL document CHEMBL3407459, “Synthesis and antimicrobial activity of novel structural hybrids of benzofuroxan and benzothiazole derivatives” (2015).

How the values were obtained:
Escherichia coli [1] = experiment: Antibacterial activity against Escherichia coli MG1655 harboring pXen7 assessed as toxicity index at 10^-7 M measured for 2 hrs by luminometric analysis; format: functional, K-12 substr. MG1655
Escherichia coli [2] = experiment: Antibacterial activity against Escherichia coli MG1655 harboring pSoxS-lux assessed as maximum induction factor at 10^-5 M after 120 mins by luminometric analysis; format: functional, K-12 substr. MG1655
[3] = Activation of quorum sensing system luxR in Escherichia coli MG1655 harboring pVFR1-lux assessed as maximum induction factor at 10^-7 M after 120 mins by luminometric analysis; settings: Escherichia coli str. K-12 substr. MG1655
Escherichia coli [4] = experiment: Antibacterial activity against Escherichia coli MG1655 harboring pRecA-lux assessed as maximum induction factor at 10^-13 M after 120 mins by luminometric analysis; format: functional, K-12 substr. MG1655
Escherichia coli [5] = experiment: Antibacterial activity against Escherichia coli MG1655 harboring pIbpA-lux assessed as maximum induction factor at 10^-4 M after 120 mins by luminometric analysis; format: functional, K-12 substr. MG1655
[6] = Activation of quorum sensing system luxR in Escherichia coli MG1655 harboring pVFR1-lux assessed as maximum induction factor at 10^-3 M after 120 mins by luminometric analysis; settings: Escherichia coli str. K-12 substr. MG1655
Escherichia coli [7] = experiment: Antibacterial activity against Escherichia coli MG1655 harboring pGrpE-lux assessed as maximum induction factor at 10^-6 M after 120 mins by luminometric analysis; format: functional, K-12 substr. MG1655
Escherichia coli [8] = experiment: Antibacterial activity against Escherichia coli MG1655 harboring pColD-lux assessed as maximum induction factor at 10^-10 M after 120 mins by luminometric analysis; format: functional, K-12 substr. MG1655
Escherichia coli [9] = experiment: Antibacterial activity against Escherichia coli MG1655 harboring pSoxS-lux assessed as maximum induction factor at 10^-4 M after 120 mins by luminometric analysis; format: functional, K-12 substr. MG1655
Escherichia coli [10] = experiment: Antibacterial activity against Escherichia coli MG1655 harboring pRecA-lux assessed as maximum induction factor at 10^-10 M after 120 mins by luminometric analysis; format: functional, K-12 substr. MG1655
[11] = Activation of quorum sensing system luxR in Escherichia coli MG1655 harboring assessed as maximum induction factor at 10^-4 M after 120 mins by luminometric analysis; settings: Escherichia coli str. K-12 substr. MG1655
Escherichia coli [12] = experiment: Antibacterial activity against Escherichia coli MG1655 harboring pColD-lux assessed as maximum induction factor at 10^-3 M after 120 mins by luminometric analysis; format: functional, K-12 substr. MG1655
Escherichia coli [13] = experiment: Antibacterial activity against Escherichia coli MG1655 harboring pSoxS-lux assessed as maximum induction factor at 10^-7 M after 120 mins by luminometric analysis; format: functional, K-12 substr. MG1655
Escherichia coli [14] = experiment: Antibacterial activity against Escherichia coli MG1655 harboring pGrpE-lux assessed as maximum induction factor at 10^-10 M after 120 mins by luminometric analysis; format: functional, K-12 substr. MG1655
Escherichia coli [15] = experiment: Antibacterial activity against Escherichia coli MG1655 harboring pXen7 assessed as toxicity index at 10^-4 M measured for 2 hrs by luminometric analysis; format: functional, K-12 substr. MG1655
Escherichia coli [16] = experiment: Antibacterial activity against Escherichia coli MG1655 harboring pGrpE-lux assessed as maximum induction factor at 10^-7 M after 120 mins by luminometric analysis; format: functional, K-12 substr. MG1655
Escherichia coli [17] = experiment: Antibacterial activity against Escherichia coli MG1655 harboring pSoxS-lux assessed as maximum induction factor at 10^-3 M after 120 mins by luminometric analysis; format: functional, K-12 substr. MG1655
Escherichia coli [18] = experiment: Antibacterial activity against Escherichia coli MG1655 harboring pXen7 assessed as toxicity index at 10^-8 M measured for 2 hrs by luminometric analysis; format: functional, K-12 substr. MG1655
Escherichia coli [19] = experiment: Antibacterial activity against Escherichia coli MG1655 harboring pColD-lux assessed as maximum induction factor at 10^-11 M after 120 mins by luminometric analysis; format: functional, K-12 substr. MG1655
Escherichia coli [20] = experiment: Antibacterial activity against Escherichia coli MG1655 harboring pColD-lux assessed as maximum induction factor at 10^-14 M after 120 mins by luminometric analysis; format: functional, K-12 substr. MG1655
Escherichia coli [21] = experiment: Antibacterial activity against Escherichia coli MG1655 harboring pIbpA-lux assessed as maximum induction factor at 10^-11 M after 120 mins by luminometric analysis; format: functional, K-12 substr. MG1655
Escherichia coli [22] = experiment: Antibacterial activity against Escherichia coli MG1655 harboring pKatG-lux assessed as maximum induction factor at 10^-13 M after 120 mins by luminometric analysis; format: functional, K-12 substr. MG1655
Escherichia coli [23] = experiment: Antibacterial activity against Escherichia coli MG1655 harboring pXen7 assessed as toxicity index at 10^-11 M measured for 2 hrs by luminometric analysis; format: functional, K-12 substr. MG1655
Escherichia coli [24] = experiment: Antibacterial activity against Escherichia coli MG1655 harboring pColD-lux assessed as maximum induction factor at 10^-6 M after 120 mins by luminometric analysis; format: functional, K-12 substr. MG1655
Escherichia coli [25] = experiment: Antibacterial activity against Escherichia coli MG1655 harboring pXen7 assessed as toxicity index at 10^-6 M measured for 2 hrs by luminometric analysis; format: functional, K-12 substr. MG1655
Escherichia coli [26] = experiment: Antibacterial activity against Escherichia coli MG1655 harboring pKatG-lux assessed as maximum induction factor at 10^-10 M after 120 mins by luminometric analysis; format: functional, K-12 substr. MG1655
Escherichia coli [27] = experiment: Antibacterial activity against Escherichia coli MG1655 harboring pColD-lux assessed as maximum induction factor at 10^-7 M after 120 mins by luminometric analysis; format: functional, K-12 substr. MG1655
Escherichia coli [28] = experiment: Antibacterial activity against Escherichia coli MG1655 harboring pIbpA-lux assessed as maximum induction factor at 10^-14 M after 120 mins by luminometric analysis; format: functional, K-12 substr. MG1655
Escherichia coli [29] = experiment: Antibacterial activity against Escherichia coli MG1655 harboring pGrpE-lux assessed as maximum induction factor at 10^-13 M after 120 mins by luminometric analysis; format: functional, K-12 substr. MG1655

O=[N+]([O-])c1cc([N+](=O)[O-])c2no[n+]([O-])c2c1Sc1nc2ccccc2s1
Activity (Escherichia coli [1]): 0
Activity (Escherichia coli [2]): 0.99
Activity [3]: 1.71
Activity (Escherichia coli [4]): 0.98
Activity (Escherichia coli [5]): 0.63
Activity [6]: 1.68
Activity (Escherichia coli [7]): 1.15
Activity (Escherichia coli [8]): 1.04
Activity (Escherichia coli [9]): 2.71
Activity (Escherichia coli [10]): 1
Activity [11]: 0.99
Activity (Escherichia coli [12]): 0.08
Activity (Escherichia coli [13]): 1.02
Activity (Escherichia coli [14]): 1.15
Activity (Escherichia coli [15]): 98
Activity (Escherichia coli [16]): 1.02
Activity (Escherichia coli [17]): 1.8
Activity (Escherichia coli [18]): 7.28
Activity (Escherichia coli [19]): 1.07
Activity (Escherichia coli [20]): 1.07
Activity (Escherichia coli [21]): 1.47
Activity (Escherichia coli [22]): 0.87
Activity (Escherichia coli [23]): 0
Activity (Escherichia coli [24]): 1.04
Activity (Escherichia coli [25]): 10.3
Activity (Escherichia coli [26]): 1.02
Activity (Escherichia coli [27]): 1.07
Activity (Escherichia coli [28]): 1.46
Activity (Escherichia coli [29]): 0.96
